For assay [1], the system named is A549. The assay can be described thus: Cytotoxicity against human A549 cells. It counts as functional, cell-based.
Assay [2] relates to P388. As to the kind of experiment: Cytotoxicity against mouse P388 cells. It counts as functional, cell-based.

This passage reports IC50 results from ChEMBL document CHEMBL1159307, “Theopederins K and L. Highly potent cytotoxic metabolites from a marine sponge Discodermia species” (J Nat Prod, 2002).

A word on the IC50: it is the midpoint of a concentration-inhibition curve. The low end stands for greater potency in that assay, the high end for weaker potency in that assay.

With `C=C1C[C@](OC)([C@H](O)C(=O)N[C@H]2OCO[C@H]3[C@@H]2O[C@H](CC(O)/C=C/C/C=C/C=C/C(=O)O)C(C)(C)[C@@H]3OC)O[C@H](C)[C@@H]1C` (stereo partly specified) [THEOPEDERIN L], the IC50 was 3.2 nM in assay [1] and 7.3 nM in assay [2].

For the compound `C=C1C[C@](OC)([C@H](O)C(=O)N[C@H]2OCO[C@H]3[C@@H]2O[C@H](CC(/C=C/C/C=C/C=C/C(=O)OC)OC)C(C)(C)[C@@H]3OC)O[C@H](C)[C@@H]1C` (stereo partly specified) [THEOPEDERIN K METHYL ESTER], the values for the IC50 in assay [1] and in assay [2] were 0.8 nM and 0.3 nM, respectively.

Take `C=C1C[C@](OC)([C@H](O)C(=O)N[C@H]2OCO[C@H]3[C@@H]2O[C@H](CC(/C=C/C/C=C/C=C/C(=O)O)OC)C(C)(C)[C@@H]3OC)O[C@H](C)[C@@H]1C` (stereo partly specified) [THEOPEDERIN K]: the IC50 in assay [1] was 1.5 nM; in assay [2], 0.1 nM.
